Test results: patent publication US9914712B2, “Antibacterial thiazolecarboxylic acids” (priority 2013, dated 2018)

Key:
NDM-1 = biological target: T1, NDM-1 (Klebsiella pneumoniae, UniProt C7C422); assay: In vitro MBL inhibition assay, imipenem hydrolysis (NDM-1); format: biochemical; conditions: Ki NDM-1, imipenem substrate, Ki from IC50 by Cheng-Prusoff, Km 70 μM
T1 construct: made in house
Experimental: NDM-1 is produced and purified as disclosed in Yong et al, Antimicrobial Agents & Chemotherapy, (2009) 53(12), 5046-54.
(§1) Reaction buffers were prepared in a UV-transparent 96-well microplate, which buffer contains 10 mM HEPES pH 7.5, 50 μM ZnSO4, 20 μg/mL BSA. An amount of 75 ng of protein was added to each well.
(§2) Spectrophometric assays are performed to determine NDM-1/VIM-2/IMP-1 carbapenemase activity using purified proteins (50 ng for NDM-1/VIM-2, 25 ng IMP-1) from NDM-1/VIM-2/IMP-1 expressing bacteria using […] of imipenem as substrate in 10 mM HEPES pH 7.5, 50 μM ZnSO4. MBL hydrolysis is measured at 299 nm for 10 minutes at 30° C. as the absorbance changes due to the opening of beta-lactam ring of the antibiotic.
(§3) The Ki values obtained for selected example compounds are shown in Table 3, where they are compared with the values for pyridine-2-carboxylic acid.

VIM-2 = biological target: T2, VIM-2 (Escherichia coli, UniProt Q5U7L7); assay: In vitro MBL inhibition assay, imipenem hydrolysis (VIM-2); format: biochemical; conditions: Ki VIM-2, imipenem substrate, Ki from IC50 by Cheng-Prusoff, Km 9 μM
T2 construct: made in house
Experimental: The MBL enzyme VIM-2 is produced and purified as disclosed in Borgianni et al, Antimicrobial Agents & Chemotherapy, (2010), 54(8), 3197-3204.
as §1, §2, §3

IMP-1 = biological target: T3, IMP-1 (Serratia marcescens, UniProt P52699); assay: In vitro MBL inhibition assay, imipenem hydrolysis (IMP-1); format: biochemical; conditions: Ki IMP-1, imipenem substrate, Ki from IC50 by Cheng-Prusoff, Km 25 μM
T3 construct: made in house
T3 sequence (P52699 19-246, species assumed): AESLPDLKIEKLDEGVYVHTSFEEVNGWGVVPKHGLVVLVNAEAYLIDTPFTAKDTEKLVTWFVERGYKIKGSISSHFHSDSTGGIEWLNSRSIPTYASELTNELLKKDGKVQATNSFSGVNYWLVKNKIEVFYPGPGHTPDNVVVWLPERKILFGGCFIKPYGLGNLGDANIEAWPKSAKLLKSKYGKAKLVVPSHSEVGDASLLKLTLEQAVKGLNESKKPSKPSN
Experimental: The MBL enzyme IMP-1 is produced and purified as disclosed in Laraki et al, Antimicrobial Agents & Chemotherapy, (1999), 43(4), 902-906.
as §1, §2, §3

[1] = test system: NTBC020 Strain: Escherichia coli producing NDM-1+TEM-1+CTX-M-15; assay: MIC of meropenem in presence of the inhibitor, broth microdilution; format: cell-based; conditions: compound at 100 μM, 37° C., 18-20 h
Experimental: (§4) The minimal inhibitory concentration (MIC) of meropenem in presence of the inhibitor is routinely assessed against 3 representative clinical strains: • NTBC020 Strain: Escherichia coli producing NDM-1+TEM-1+CTX-M-15, (isolated in Australia in 2009); • NTBC023 strain: Klebsiella pneumoniae producing VIM-1+SHV-5, (isolated in France in 2002); • NTBC062 strain: Klebsiella pneumoniae producing IMP-1+TEM-1, (isolated in France in 2012);
(§5) The assay was performed according to the standard broth microdilution method described by the Clinical and Laboratory Standards Institute (CLSI-M7-A7—Methods for dilution antimicrobial susceptibility tests for bacteria that grow aerobically; Approved standard; CLSI, Wayne, Pa., USA. 2006). This method involves the use of small volumes of broth dispensed in sterile, plastic 96-wells microdilution plates. The compounds were tested at a concentration of 100 μM and controls included the susceptibility tests for the three selected strains without the compounds and for the two reference strains E. coli ATCC 25922 and Pseudomonas aeruginosa ATCC 27853 as Quality Controls.
(§6) From a stock solution at 20 mM in DMSO, compounds were prepared by diluting 0.04 mL of the compound solution in 0.04 mL of Mueller-Hinton (MH) broth (2-fold dilution). Then, 0.001 mL of the compound dilution was distributed in the 96-wells microdilution plates to give a final concentration of 100 μM for a final volume of 0.1 mL by well.
(§7) From a meropenem stock solution at 10 mg/ml in water, meropenem 2-fold serial dilutions were prepared in MH broth at twice the desired final concentrations, e.g from 512 to 0.0037 μg/ml. The 96-wells microdilution plates were then filled with 0.05 mL of the meropenem dilutions. For each susceptibility test, two wells were left free of antibiotic and filled with 0.05 mL of sterile MH broth to serve as growth controls.
(§8) The bacterial inoculum was prepared by direct colony suspension from a 24 h-agar plate in saline solution (NaCl 9 g/L). The suspension was adjusted to a 0.5 MacFarland turbidity standard (1-2×10^8 CFU/mL) and then diluted 1:100 in MH broth. 0.05 mL of the bacterial dilution was then inoculated to each well giving a final volume of 0.1 mL and a final bacterial concentration of approximately 5×10^5 CFU/mL.
(§9) Microdilution plates were incubated at 37° C. in an ambient air incubator for 18-20 h.

[2] = test system: NTBC023 strain: Klebsiella pneumoniae producing VIM-1+SHV-5; assay: as above; format: cell-based; conditions: compound at 100 μM, 37° C., 18-20 h
Experimental: as §4, §5, §6, §7, §8, §9

NTBC039 = assay: as above; format: cell-based; conditions: compound at 100 μM, 37° C., 18-20 h

T1 sequence (C7C422 29-270 limits assumed): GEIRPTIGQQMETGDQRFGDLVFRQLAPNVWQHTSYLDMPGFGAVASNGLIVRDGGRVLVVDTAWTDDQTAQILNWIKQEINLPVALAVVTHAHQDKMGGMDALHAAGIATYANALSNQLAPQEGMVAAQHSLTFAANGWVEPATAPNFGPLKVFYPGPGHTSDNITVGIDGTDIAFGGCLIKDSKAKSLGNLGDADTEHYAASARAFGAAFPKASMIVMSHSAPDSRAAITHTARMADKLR

**Q.** Which Ki (NDM-1) does the source give for `O=C(O)c1ncsc1NS(=O)(=O)c1csc2ccccc12` [Compound 41, 5-(1-benzothiophene-3-sulfonamido)-1,3-thiazole-4-carboxylic acid] here?
**A.** The Ki was 670 nM.

**Q.** And the Ki (VIM-2)?
**A.** The Ki was 220 nM.

**Q.** What about the Ki (IMP-1) of the same molecule?
**A.** The Ki was 80 nM.

**Q.** And the MIC of meropenem, strain NTBC020 [1]?
**A.** The MIC of meropenem, strain NTBC020 was 64 µg/mL.

**Q.** And the MIC of meropenem, strain NTBC023 [2]?
**A.** The MIC of meropenem, strain NTBC023 was 16 µg/mL.

**Q.** And the MIC of meropenem, strain NTBC039 (NTBC039)?
**A.** Its MIC of meropenem, strain NTBC039 is 4 µg/mL.

**Q.** For `O=C(O)c1ncsc1NS(=O)(=O)Cc1cccnc1` [Compound 170, 5-(3-pyridylmethylsulfonylamino)thiazole-4-carboxylic acid], which Ki (NDM-1) is on record?
**A.** The Ki was 4200 nM.

**Q.** What about the Ki (VIM-2) of the same molecule?
**A.** Its Ki is 460 nM.

**Q.** And the MIC of meropenem, strain NTBC020 [1]?
**A.** The MIC of meropenem, strain NTBC020 was 16 µg/mL.

**Q.** What about the MIC of meropenem, strain NTBC023 [2] of the same molecule?
**A.** Its MIC of meropenem, strain NTBC023 is 1 µg/mL.

**Q.** And the MIC of meropenem, strain NTBC039 (NTBC039)?
**A.** The MIC of meropenem, strain NTBC039 was 0.25 µg/mL.

**Q.** Which Ki (NDM-1) does the source give for `O=C(O)c1ncsc1NS(=O)(=O)CC1CCOCC1` [Compound 111, 5-[(oxan-4-ylmethyl)sulfonamido]-1,3-thiazole-4-carboxylic acid] here?
**A.** The Ki was 2800 nM.

**Q.** And the Ki (VIM-2)?
**A.** Its Ki is 220 nM.

**Q.** What about the Ki (IMP-1) of the same molecule?
**A.** The Ki was 900 nM.

**Q.** And the MIC of meropenem, strain NTBC020 [1]?
**A.** The MIC of meropenem, strain NTBC020 was 4 µg/mL.

**Q.** What about the MIC of meropenem, strain NTBC023 [2] of the same molecule?
**A.** The MIC of meropenem, strain NTBC023 was 8 µg/mL.

**Q.** What about the MIC of meropenem, strain NTBC039 (NTBC039) of the same molecule?
**A.** Its MIC of meropenem, strain NTBC039 is 0.25 µg/mL.

**Q.** For `O=C(O)c1ncsc1NS(=O)(=O)c1ccccc1` [Compound 1, 5-benzenesulfonamido-1,3-thiazole-4-carboxylic acid], which Ki (NDM-1) is on record?
**A.** The Ki was 1200 nM.

**Q.** What about the Ki (VIM-2) of the same molecule?
**A.** The Ki was 320 nM.

**Q.** What about the Ki (IMP-1) of the same molecule?
**A.** The Ki was 80 nM.

**Q.** What about the MIC of meropenem, strain NTBC020 [1] of the same molecule?
**A.** Its MIC of meropenem, strain NTBC020 is 32 µg/mL.

**Q.** And the MIC of meropenem, strain NTBC023 [2]?
**A.** The MIC of meropenem, strain NTBC023 was 64 µg/mL.

**Q.** What about the MIC of meropenem, strain NTBC039 (NTBC039) of the same molecule?
**A.** Its MIC of meropenem, strain NTBC039 is 16 µg/mL.

**Q.** For `O=C(O)c1ncsc1NS(=O)(=O)c1ccc(N2CCCCC2)nc1` [Compound 138, 5-[6-(piperidin-1-yl)pyridin-3-ylsulfonamido]-1,3-thiazole-4-carboxylic acid], which Ki (NDM-1) is on record?
**A.** Its Ki is 430 nM.

**Q.** And the Ki (VIM-2)?
**A.** Its Ki is 10 nM.

**Q.** What about the Ki (IMP-1) of the same molecule?
**A.** Its Ki is 130 nM.

**Q.** And the MIC of meropenem, strain NTBC020 [1]?
**A.** The MIC of meropenem, strain NTBC020 was 32 µg/mL.

**Q.** And the MIC of meropenem, strain NTBC023 [2]?
**A.** The MIC of meropenem, strain NTBC023 was 16 µg/mL.

**Q.** And the MIC of meropenem, strain NTBC039 (NTBC039)?
**A.** The MIC of meropenem, strain NTBC039 was 1 µg/mL.

**Q.** How did the Ki (NDM-1) turn out when `N[C@@H](C(=O)N1CCC(c2ccc(S(=O)(=O)Nc3scnc3C(=O)O)cc2)CC1)c1ccccc1` [Compound 172, S-5-[[4-[1-(2-amino-2-phenyl-acetyl)-4-piperidyl]phenyl]sulfonylamino]thiazole-4-carboxylic acid] was run?
**A.** The Ki was 220 nM.

**Q.** What about the Ki (VIM-2) of the same molecule?
**A.** The Ki was 50 nM.

**Q.** What about the Ki (IMP-1) of the same molecule?
**A.** Its Ki is 760 nM.

**Q.** What about the MIC of meropenem, strain NTBC020 [1] of the same molecule?
**A.** Its MIC of meropenem, strain NTBC020 is 64 µg/mL.

**Q.** What about the MIC of meropenem, strain NTBC023 [2] of the same molecule?
**A.** Its MIC of meropenem, strain NTBC023 is 8 µg/mL.

**Q.** What about the MIC of meropenem, strain NTBC039 (NTBC039) of the same molecule?
**A.** Its MIC of meropenem, strain NTBC039 is 8 µg/mL.

**Q.** What does the source list for `O=C(O)c1ncsc1NS(=O)(=O)c1ccc(OC2CCNC2)cc1` (centres unmarked) [Compound 163, 5-[4-(pyrrolidin-3-yloxy)phenylsulfonamido]-1,3-thiazole-4-carboxylic acid]?
**A.** Ki (NDM-1): 370 nM; Ki (VIM-2): 280 nM; Ki (IMP-1): 1000 nM; MIC of meropenem, strain NTBC020 [1]: 16 µg/mL; MIC of meropenem, strain NTBC023 [2]: 32 µg/mL; MIC of meropenem, strain NTBC039 (NTBC039): 16 µg/mL

**Q.** For `N[C@@H](C(=O)N1CCC(c2ccc(S(=O)(=O)Nc3scnc3C(=O)O)cc2)CC1)c1ccccc1` [Compound 173, R-5-[[4-[1-(2-amino-2-phenyl-acetyl)-4-piperidyl]phenyl]sulfonylamino]thiazole-4-carboxylic acid], which Ki (NDM-1) is on record?
**A.** Its Ki is 180 nM.

**Q.** And the Ki (VIM-2)?
**A.** The Ki was 40 nM.

**Q.** And the Ki (IMP-1)?
**A.** The Ki was 330 nM.

**Q.** What about the MIC of meropenem, strain NTBC020 [1] of the same molecule?
**A.** Its MIC of meropenem, strain NTBC020 is 128 µg/mL.

**Q.** And the MIC of meropenem, strain NTBC023 [2]?
**A.** Its MIC of meropenem, strain NTBC023 is 8 µg/mL.

**Q.** What about the MIC of meropenem, strain NTBC039 (NTBC039) of the same molecule?
**A.** Its MIC of meropenem, strain NTBC039 is 8 µg/mL.
